Source: PubChem BioAssay AID248 (DTP/NCI, 2004)
Several values for one entry are separate records, joined by “and”; a condition that tells them apart may be missing. Identical values can stand only once. Inconclusive results and toxic doses are left out. No stated cut-off is given here; in the data, active means T/C of 150% or more; inactive means T/C below 125%.

System: L1210 leukemia ip in BDF1 mice, survival T/C
Experiment: NCI In Vivo Anticancer Drug Screen. Data for tumor model L1210 Leukemia (intraperitoneal) in B6D2F1 (BDF1) mice
Details: endpoint: mean survival time, higher = longer survival
In short: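 Antitumor effect is assessed in tumor-bearing animals. Survival in the compound arm is compared with a vehicle-dosed control arm and expressed as their quotient.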

[1] = dose: 100.0 mg/kg/injection, schedule: Q01DX009 (ip), vehicle: saline
[2] = dose: 100.0 mg/kg/injection, schedule: Q04DX003 (ip), vehicle: acetone
[3] = dose: 200.0 mg/kg/injection, schedule: Q01DX009 (ip), vehicle: saline
[4] = dose: 200.0 mg/kg/injection, schedule: Q04DX003 (ip), vehicle: acetone
[5] = dose: 400.0 mg/kg/injection, schedule: Q04DX003 (ip), vehicle: acetone
[6] = dose: 100.0 mg/kg/injection, schedule: Q04DX002 (ip), vehicle: other
[7] = dose: 200.0 mg/kg/injection, schedule: Q04DX002 (ip), vehicle: other
[8] = dose: 400.0 mg/kg/injection, schedule: Q04DX002 (ip), vehicle: other
[9] = dose: 100.0 mg/kg/injection, schedule: Q01DX001 (ip), vehicle: saline with Tween-80
[10] = dose: 200.0 mg/kg/injection, schedule: Q01DX001 (ip), vehicle: saline with Tween-80
[11] = dose: 400.0 mg/kg/injection, schedule: Q01DX001 (ip), vehicle: saline with Tween-80
[12] = dose: 100.0 mg/kg/injection, schedule: Q04DX003 (ip), vehicle: Klucel (hydroxypropylcellulose) (HPC)
[13] = dose: 200.0 mg/kg/injection, schedule: Q04DX003 (ip), vehicle: Klucel (hydroxypropylcellulose) (HPC)
[14] = dose: 100.0 mg/kg/injection, schedule: Q04DX003 (ip), vehicle: saline with Tween-80
[15] = dose: 200.0 mg/kg/injection, schedule: Q04DX003 (ip), vehicle: saline with Tween-80
[16] = dose: 400.0 mg/kg/injection, schedule: Q04DX003 (ip), vehicle: saline with Tween-80
[17] = dose: 100.0 mg/kg/injection, schedule: Q01DX001 (ip), vehicle: saline
[18] = dose: 100.0 mg/kg/injection, schedule: Q01DX001 (ip), vehicle: carboxymethylcellulose (CMC)
[19] = dose: 200.0 mg/kg/injection, schedule: Q01DX001 (ip), vehicle: carboxymethylcellulose (CMC)
[20] = dose: 400.0 mg/kg/injection, schedule: Q01DX001 (ip), vehicle: carboxymethylcellulose (CMC)

Measured: T/C

CC1(C)Cc2cc3cc(Cl)ccc3nc2-c2ccccc21
inactive: [1] 102 % of control | [2] 98 % of control | [3] 89 % of control | [4] 104 % of control | dose: 400.0 mg/kg/injection, schedule: Q01DX009 (ip), vehicle: saline 100 % of control | [5] 94 % of control

CC12CCC(O)CC1CCC1C3CC/C(=C\c4ccco4)C(=O)C3(CCC#N)CCC12 (stereo not drawn)
inactive: dose: 100.0 mg/kg/injection, schedule: Q01DX001 (sc), vehicle: steriod suspending solution 108 % of control | dose: 200.0 mg/kg/injection, schedule: Q01DX001 (sc), vehicle: steriod suspending solution 106 % of control | dose: 400.0 mg/kg/injection, schedule: Q01DX001 (sc), vehicle: steriod suspending solution 106 % of control

O=C1CCCCC1c1ccccc1 (stereo not drawn)
inactive: dose: 50.0 mg/kg/injection, schedule: Q04DX002 (ip), vehicle: other 99 % of control | [6] 92 % of control | dose: 100.0 mg/kg/injection, schedule: Q04DX003 (ip), vehicle: other 96 % of control | [7] 108 % of control | dose: 200.0 mg/kg/injection, schedule: Q04DX003 (ip), vehicle: other 95 % of control | [8] 99 % of control | dose: 400.0 mg/kg/injection, schedule: Q04DX003 (ip), vehicle: other 98 % of control

O=C(O)c1ccc(Cn2ccc(=O)[nH]c2=O)cc1
inactive: [9] 95 % of control | [10] 107 % of control | [11] 101 % of control

O/N=C/c1ccc(Cc2ccccc2)o1
inactive: dose: 75.0 mg/kg/injection, schedule: Q01DX001 (ip), vehicle: carboxymethylcellulose (CMC) 97 % of control | dose: 150.0 mg/kg/injection, schedule: Q01DX001 (ip), vehicle: carboxymethylcellulose (CMC) 100 % of control | dose: 300.0 mg/kg/injection, schedule: Q01DX001 (ip), vehicle: carboxymethylcellulose (CMC) 96 % of control

Cc1cc(C)nc(NC(=O)COc2ccc(Cl)cc2)c1
inactive: dose: 50.0 mg/kg/injection, schedule: Q01DX009 (ip), vehicle: Klucel (hydroxypropylcellulose) (HPC) 97 % of control | dose: 100.0 mg/kg/injection, schedule: Q01DX009 (ip), vehicle: Klucel (hydroxypropylcellulose) (HPC) 100 % of control | [12] 101 % of control | dose: 200.0 mg/kg/injection, schedule: Q01DX009 (ip), vehicle: Klucel (hydroxypropylcellulose) (HPC) 93 % of control | [13] 97 % of control

FC(F)(F)c1ccc2c(c1)N(CCCCl)c1ccccc1S2
inactive: dose: 50.0 mg/kg/injection, schedule: Q04DX003 (ip), vehicle: Klucel (hydroxypropylcellulose) (HPC) 103 % of control | [12] 118 % of control | [13] 105 % of control | dose: 400.0 mg/kg/injection, schedule: Q04DX003 (ip), vehicle: Klucel (hydroxypropylcellulose) (HPC) 115 % of control

O=C(O)c1ccccc1NCc1cc(=O)[nH]c(=O)[nH]1
inactive: [14] 101 % of control | [15] 98 % of control | [16] 95 % of control

O=C1CCCCCN1
inactive: [17] 101 % of control | [1] 100 % of control | [6] 98 % of control | dose: 200.0 mg/kg/injection, schedule: Q01DX001 (ip), vehicle: saline 101 % of control | [3] 100 % of control | [7] 95 % of control | dose: 400.0 mg/kg/injection, schedule: Q01DX001 (ip), vehicle: saline 103 % of control | [8] 101 % of control

CCOC(=O)C(NC(=O)c1cc2sccc2[nH]1)C(=O)OCC
inactive: dose: 100.0 mg/kg/injection, schedule: Q01DX001 (ip), vehicle: Klucel (hydroxypropylcellulose) (HPC) 96 % of control | dose: 200.0 mg/kg/injection, schedule: Q01DX001 (ip), vehicle: Klucel (hydroxypropylcellulose) (HPC) 96 % of control | dose: 400.0 mg/kg/injection, schedule: Q01DX001 (ip), vehicle: Klucel (hydroxypropylcellulose) (HPC) 98 % of control

Brc1ccc(N=Cc2ccc3c(c2)OCO3)cc1
inactive: dose: 100.0 mg/kg/injection, schedule: Q04DX003 (ip), vehicle: gum acacia 96 % of control | dose: 200.0 mg/kg/injection, schedule: Q04DX003 (ip), vehicle: gum acacia 95 % of control | dose: 400.0 mg/kg/injection, schedule: Q04DX003 (ip), vehicle: gum acacia 90 % of control

CCOC(=O)C1(C(=O)OCC)C=C(CC)C(=O)OC1
inactive: dose: 50.0 mg/kg/injection, schedule: Q01DX001 (ip), vehicle: carboxymethylcellulose (CMC) 111 % of control | [18] 100 % of control | [19] 113 % of control | [20] 105 % of control

O=C1c2ccccc2-c2cccc(I)c21
inactive: [18] 99 % of control | [19] 101 % of control | [20] 92 % of control

CC(N)C(O)C(Cl)(Cl)Cl (stereo not drawn)
inactive: [14] 92 % of control | [15] 92 % of control | [16] 90 % of control

CC(=C(C#N)C#N)c1ccc(Cl)cc1
inactive: dose: 12.5 mg/kg/injection, schedule: Q01DX001 (ip), vehicle: Klucel (hydroxypropylcellulose) (HPC) 112 % of control | dose: 25.0 mg/kg/injection, schedule: Q01DX001 (ip), vehicle: Klucel (hydroxypropylcellulose) (HPC) 91 % of control | dose: 50.0 mg/kg/injection, schedule: Q01DX001 (ip), vehicle: Klucel (hydroxypropylcellulose) (HPC) 112 % of control | [12] 108 % of control

CNC(=O)Nc1ccccc1C(=O)NN
inactive: dose: 100.0 mg/kg/injection, schedule: Q01DX009 (ip), vehicle: other 100 % of control | dose: 200.0 mg/kg/injection, schedule: Q01DX009 (ip), vehicle: other 96 % of control

CCOC(=O)C1(C(=O)OCC)COC(=O)C1
inactive: dose: 50.0 mg/kg/injection, schedule: Q01DX009 (ip), vehicle: acetone 94 % of control | dose: 100.0 mg/kg/injection, schedule: Q01DX009 (ip), vehicle: acetone 97 % of control | [2] 107 % of control | dose: 200.0 mg/kg/injection, schedule: Q01DX009 (ip), vehicle: acetone 100 % of control | [4] 96 % of control | [5] 98 % of control

CC(=O)n1cc(CS)c(=O)[nH]c1=O
inactive: [17] 106 % of control

COc1ccc(OC)c(C(Nc2ccc3cn[nH]c3c2)P(=O)(c2ccccc2)c2ccccc2)c1 (stereo not drawn)
inactive: [9] 93 % of control | dose: 100.0 mg/kg/injection, schedule: Q01DX009 (ip), vehicle: saline with Tween-80 95 % of control | dose: 100.0 mg/kg/injection, schedule: Q04DX002 (ip), vehicle: saline with Tween-80 103 % of control and 104 % of control | [14] 96 % of control | [10] 103 % of control | dose: 200.0 mg/kg/injection, schedule: Q01DX009 (ip), vehicle: saline with Tween-80 95 % of control | dose: 200.0 mg/kg/injection, schedule: Q04DX002 (ip), vehicle: saline with Tween-80 95 % of control and 90 % of control | [15] 95 % of control | [11] 92 % of control | dose: 400.0 mg/kg/injection, schedule: Q01DX009 (ip), vehicle: saline with Tween-80 97 % of control | dose: 400.0 mg/kg/injection, schedule: Q04DX002 (ip), vehicle: saline with Tween-80 93 % of control | [16] 92 % of control
